Laboratory results reported in patent publication US7091351B2, “Vanadium compounds for treating cancer” (Parker Hughes Institute, priority 1998, dated 2006).
Like-named read-outs stand apart in the source and are kept apart here.

Assays:
[1] = tested on: Ntera-2 testicular cancer cells; assay: Flow cytometric TUNEL apoptosis assay, NTERA-2 cells; assay type: cell-based, human; conditions: 24 h, TUNEL-positive nuclei
Method: A flow cytometric two-color terminal […] transferase (TdT)-mediated digoxigenin-uridine triphosphate (dUTP) nick-end labeling assay (TUNEL) was employed to detect apoptotic nuclei. Gavrieli, Y., Sherman, Y., Ben-Sasson, S. A. Identification of programmed cell death in situ via specific labeling of nuclear DNA fragmentation. J. Cell Biol., 119: 493–501, 1992. Exponentially growing cells (10^6/ml) were incubated in DMSO alone (0.1%) or treated with 100 μM each of the 16 vanadocenes (VDB, VDC, VMDC, VDI, VDA, VDCN, VDOCN, VDSCN, VDSeCN, VDT, VDCO, VDFe, VD(acac), VDH, VD(dpy), and VD(dtc) in 0.1% DMSO for 24 h. Cells were washed in PBS, fixed in 4% paraformaldehyde in PBS for 15 min on ice. Following two washings in PBS, they were permeabilized with 0.1% Triton X-100 in 0.1% sodium citrate for 2 min on ice, and washed twice in PBS. Labeling of exposed 3′-hydroxyl (3′-OH) ends of fragmented nuclear DNA was performed using TdT and fluorescein isothiocyanate (FITC)-conjugated dUTP according to the manufacturer's recommendations (Boehringer Mannheim, Indianapolis, Ind.). Cells were counterstained with 5 μg/ml PI. Control samples included: (i) untreated cells; (ii) cells incubated with the reaction mixture without the TdT enzyme. Cells were analyzed with a FACS Calibur flow cytometer (Becton Dickinson, Mountain View, Calif.). Relative DNA content (PI) was detected with band-pass filter 585/42, and dUTP incorporation (FITC) was detected with band-pass filter 530/30. Fluorescence was compensated for in the acquisition software using single-label control samples. Data were acquired in listmode, gated to 10,000 events per sample, and analyzed with the use of CELLQuest software program (Becton Dickinson). […] Vanadocene-induced apoptosis is shown by an increase in the number of cells staining with FITC-dUTP. The M1 and M2 gates were used to demarcate non-apoptotic and apoptotic PI-counterstained cell populations, respectively. TUNEL assays were performed using two testicular cell lines Tera-2 and Ntera-2 following exposure to each of the 16 vanadocenes. In other experiments, MC540 binding (as an early marker of apoptosis) and PI permeability (as a marker of advanced stage apoptosis) were simultaneously measured in human cancer cells 24 hours after exposure to vanadocenes, as previously described. Uckun, F. M., Narla, R. K., Jun, X., Zeren, T., Venkatachalam, T., Waddick, K. G., Rostostev, A., Myers, D. E. Cytotoxic activity of EGF-genstein against breast cancer cells. Clin. Cancer Res. 4:901–912, 1998. Vassilev, A., Ozer, Z., Navara, C., Mahajan, S., and Uckun, F. M. Bruton's tyrosine kinase as an inhibitor of the Fas/CD95 death-inducing signaling complex. J. Biol. Chem. 274:1646–56, 1999. Whole cells were analyzed using a FACStar Plus flow cytometer (Becton Dickinson, San Jose, Calif.). All analyses were done using 488 nm excitation from an argon laser. MC540 and PI emissions were split with a 600 nm short pass dichroic mirror and a 575 nm band pass filter was placed in front of one photomultiplier tube to measure MC540 emission and a 635 nm band pass filter was used for PI emission.

[2] = tested on: NALM-6 leukemia cells; assay: Mitochondrial transmembrane potential, JC-1 staining, flow cytometry; assay type: cell-based, human
Method: To measure the changes in mitochondria, NALM-6 cells were incubated with compound 29 at concentrations ranging from 0.1 μM to 1 μM for 24 hr, 48 hr, 72 hr or 96 hr, stained with specific fluorescent dyes and analyzed with flow cytometer. Mitochondrial membrane potential (ΔΨm) was measured using two dyes including a lipophollic cation 5,5′,6,6′-tetrachloro-1,1′,3,3′-tetraethlybenzimidazolylcarbocyanine iodide (JC-1; Molecular probes, Eugene, Oreg.) and a cyanine dye, 1,1′,3,3,3′,3′-hexamethylindodicarbocyanine iodide [DiIC1(5); Molecular probes] as earlier described (22). JC-1 can enter the cells, and selectively mitochondria, and has been used to assess ΔΨm in a variety of studies (23,24). JC-1 is a monomer at 527 nm after being excited at 490 nm; with polarization of ΔΨm, J-aggregates are formed that shift emission to 590 nm (23, 24). This can be detected on a flow cytometer by assessing the green signal (at 527 nm) and green-orange signal (at 590 nm) simultaneously, creating an index of the number of cells polarized and depolarized mitochondria. The treated and control cells were washed and plated in a 6-well plate at 1×10^6 cells in fresh medium. JC-1 was added at a concentration of 10 μg/ml, and cells were incubated for 10 min in the dark at room temp. Cells were then washed twice with ice-cold PBS and immediately analyzed using Becton Dickinson (San Jose, Calif.) Calibur flow cytometer. At least 2×10^3 cells were analyzed to determine the percentage of cells with polarized and depolarized mitochondria. DiIC1(5), a cyanine dye is amphioatheic and cationic that concentrate in energized mitochondria and has been used in a variety of studies to measure the mitochondrial membrane potential (25–27). NALM-6 cells were stained with DiIC1(5) at 40 nM concentration for 30 min in the dark as described for JC-1. The cells were analyzed using Vantage Becton Dickinson cell sorter equipped with HeNe laser with excitation at 635 nm and the fluorescence was collected at 666 nm.

Compound | % Apoptosis at 100 μM NTERA-2 [1] | fraction of JC-1 red/orange fluorescence-positive cells, 48 hr ([2]; 500 nM, 48 hr (vehicle 98.6%)) [%] | fraction of JC-1 red/orange fluorescence-positive cells, 72 hr ([2]; 500 nM, 72 hr (vehicle 98.6%)) [%] | EC50 ([2]; 24 hr treatment, read-out: average EC50 for depolarization of mitochondria (JC-1 red/orange fluorescence), 24 hr) [nM] | EC50 ([2]; 48 hr treatment, read-out: average EC50 for depolarization of mitochondria (JC-1 red/orange fluorescence), 48 hr) [nM]
[Cl-].[Cl-].[V+4].c1cc[cH-]c1.c1cc[cH-]c1 [VDC, VCp2Cl2] | 35 (34, 34) % |  |  |  | 
bis(4,7-dimethyl-1,10-phenanthroline)sulfatooxovanadium(IV) [Compound 29] |  | 56.1 | 8.4 | 4200 | 500
